# Reference: PubChem BioAssay AID1918958 (Molecular Pharmacology Branch, DTP, NCI, 2023)
# Tested on: NCI-H196 complex spheroid viability
# Experiment: Anticancer human tumor NCI-H196 cell line growth inhibition [LSD1];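 note: spheroids exposed to agents for 7 days before readout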;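 for viability, T/C: 100% = DMSO vehicle control viability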
# Conditions: for IC50: curve of first compound; for viability, T/C: stronger effect = lower value
# Outline: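 Multicellular complex spheroids of tumor cells with human endothelial cells (HUVEC) and mesenchymal stem cells; the LSD1 inhibitor iadademstat was combined with standard-of-care or investigational agents. Top concentration at or near clinical Cmax, half-log dilutions; final DMSO ≤0.25%.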
structure (smiles),measurement,setting,value
O=C(C=Cc1cccc(S(=O)(=O)Nc2ccccc2)c1)NO + NC1CCC(NC2CC2c2ccccc2)CC1,IC50,second compound 0.1 µM,0.163 µM
same,IC50,second compound 0.316 µM,0.139 µM
same,IC50,second compound 1 µM,0.158 µM
same,IC50,second compound 3.16 µM,0.145 µM
same,IC50,second compound 10 µM,0.138 µM
same,"viability, T/C","second compound 0.1 µM, first compound 0.00949 µM",99.6%
same,"viability, T/C","second compound 0.1 µM, first compound 0.03 µM",103%
same,"viability, T/C","second compound 0.1 µM, first compound 0.0949 µM",75.4%
same,"viability, T/C","second compound 0.1 µM, first compound 0.3 µM",21.1%
same,"viability, T/C","second compound 0.1 µM, first compound 0.949 µM",0.51%
same,"viability, T/C","second compound 0.1 µM, first compound 3 µM",0.44%
same,"viability, T/C","second compound 0.316 µM, first compound 0.00949 µM",93.9%
same,"viability, T/C","second compound 0.316 µM, first compound 0.03 µM",101%
same,"viability, T/C","second compound 0.316 µM, first compound 0.0949 µM",65.8%
same,"viability, T/C","second compound 0.316 µM, first compound 0.3 µM",16.7%
same,"viability, T/C","second compound 0.316 µM, first compound 0.949 µM",0.24%
same,"viability, T/C","second compound 0.316 µM, first compound 3 µM",1.63%
same,"viability, T/C","second compound 1 µM, first compound 0.00949 µM",94.5%
same,"viability, T/C","second compound 1 µM, first compound 0.03 µM",93.4%
same,"viability, T/C","second compound 1 µM, first compound 0.0949 µM",75.4%
same,"viability, T/C","second compound 1 µM, first compound 0.3 µM",18.4%
same,"viability, T/C","second compound 1 µM, first compound 0.949 µM",0.31%
same,"viability, T/C","second compound 1 µM, first compound 3 µM",0.36%
same,"viability, T/C","second compound 3.16 µM, first compound 0.00949 µM",96.9%
same,"viability, T/C","second compound 3.16 µM, first compound 0.03 µM",92.3%
same,"viability, T/C","second compound 3.16 µM, first compound 0.0949 µM",68.5%
same,"viability, T/C","second compound 3.16 µM, first compound 0.3 µM",18.5%
same,"viability, T/C","second compound 3.16 µM, first compound 0.949 µM",0.41%
same,"viability, T/C","second compound 3.16 µM, first compound 3 µM",0.27%
same,"viability, T/C","second compound 10 µM, first compound 0.00949 µM",88.8%
same,"viability, T/C","second compound 10 µM, first compound 0.03 µM",89.8%
same,"viability, T/C","second compound 10 µM, first compound 0.0949 µM",64.7%
same,"viability, T/C","second compound 10 µM, first compound 0.3 µM",18.6%
same,"viability, T/C","second compound 10 µM, first compound 0.949 µM",0.76%
same,"viability, T/C","second compound 10 µM, first compound 3 µM",0.84%
COc1cc(Nc2ncc3c(n2)-c2ccc(Cl)cc2C(c2c(F)cccc2OC)=NC3)ccc1C(=O)O + NC1CCC(NC2CC2c2ccccc2)CC1,IC50,second compound 0.1 µM,> 1 µM
same,IC50,second compound 0.316 µM,> 1 µM
same,IC50,second compound 1 µM,> 1 µM
same,IC50,second compound 3.16 µM,> 1 µM
same,IC50,second compound 10 µM,> 1 µM
same,"viability, T/C","second compound 0.1 µM, first compound 0.00316 µM",94.8%
same,"viability, T/C","second compound 0.1 µM, first compound 0.01 µM",107%
same,"viability, T/C","second compound 0.1 µM, first compound 0.0316 µM",122%
same,"viability, T/C","second compound 0.1 µM, first compound 0.1 µM",116%
same,"viability, T/C","second compound 0.1 µM, first compound 0.316 µM",134%
same,"viability, T/C","second compound 0.1 µM, first compound 1 µM",121%
same,"viability, T/C","second compound 0.316 µM, first compound 0.00316 µM",99.2%
same,"viability, T/C","second compound 0.316 µM, first compound 0.01 µM",103%
same,"viability, T/C","second compound 0.316 µM, first compound 0.0316 µM",112%
same,"viability, T/C","second compound 0.316 µM, first compound 0.1 µM",131%
same,"viability, T/C","second compound 0.316 µM, first compound 0.316 µM",123%
same,"viability, T/C","second compound 0.316 µM, first compound 1 µM",138%
same,"viability, T/C","second compound 1 µM, first compound 0.00316 µM",94.4%
same,"viability, T/C","second compound 1 µM, first compound 0.01 µM",108%
same,"viability, T/C","second compound 1 µM, first compound 0.0316 µM",102%
same,"viability, T/C","second compound 1 µM, first compound 0.1 µM",113%
same,"viability, T/C","second compound 1 µM, first compound 0.316 µM",126%
same,"viability, T/C","second compound 1 µM, first compound 1 µM",119%
same,"viability, T/C","second compound 3.16 µM, first compound 0.00316 µM",95.7%
same,"viability, T/C","second compound 3.16 µM, first compound 0.01 µM",105%
same,"viability, T/C","second compound 3.16 µM, first compound 0.0316 µM",110%
same,"viability, T/C","second compound 3.16 µM, first compound 0.1 µM",103%
same,"viability, T/C","second compound 3.16 µM, first compound 0.316 µM",128%
same,"viability, T/C","second compound 3.16 µM, first compound 1 µM",126%
same,"viability, T/C","second compound 10 µM, first compound 0.00316 µM",92.2%
same,"viability, T/C","second compound 10 µM, first compound 0.01 µM",107%
same,"viability, T/C","second compound 10 µM, first compound 0.0316 µM",97.6%
same,"viability, T/C","second compound 10 µM, first compound 0.1 µM",116%
same,"viability, T/C","second compound 10 µM, first compound 0.316 µM",125%
same,"viability, T/C","second compound 10 µM, first compound 1 µM",113%
